Test results reported in ChEMBL document CHEMBL1122438, “2-Phenylpyrazolo[1,5-a]pyrimidin-7-ones. A new class of nonsteroidal antiinflammatory drugs devoid of ulcerogenic activity” (J Med Chem, 1983).
Active and inactive are the calls of the source. The rule behind the calls is not given here.

Legend:
[1] = test system: Mus musculus; experiment: Percent reduction of edema in mice 3h after oral administration of 20 mg/kg in carrageenan model; format: functional
[2] = test system: Rattus norvegicus; experiment: Percent reduction of edema in rat on 23rd day after oral administration of 20 mg/kg in antiarthritis assay; format: functional
[3] = test system: Rattus norvegicus; experiment: Median ulcerogenic dose was determined at 30 mg/kg dose; format: functional
[4] = test system: Mus musculus; experiment: Acute toxicity was evaluated as number of mice died (tested = 7) after 72nd hour when 8 mg/kg is administered intraperitoneally; format: organism-based; parameters: dose 8 mg/kg, route intraperitoneal; settings: in vivo, ip
[5] = test system: Rattus norvegicus; experiment: Ulcer index at 30 mg/kg concentration; format: functional
[6] = test system: Rattus norvegicus; experiment: Analgesic activity evaluated by measuring % analgesic effect, after oral administration of 1.0 mg/kg in acetic acid writhing test; format: functional
[7] = Toxic activity is expressed as LD50 values; format: toxicity, organism-based; settings: mouse, in vivo
[8] = test system: Rattus norvegicus; experiment: Ulcer index at 50 mg/kg concentration; format: functional
[9] = test system: Rattus norvegicus; experiment: Analgesic activity evaluated by measuring % analgesic effect, after oral administration of 3.0 mg/kg in acetic acid writhing test; format: functional
[10] = test system: Mus musculus; experiment: Acute toxicity was evaluated as number of mice died (tested = 7) after 72nd hour when 12 mg/kg is administered intraperitoneally; format: organism-based; parameters: dose 12 mg/kg, route intraperitoneal; settings: in vivo, ip
[11] = organism: Mus musculus; experiment: (§1) Analgesic activity in acetic acid writhing test, activity is expressed as ED50 values; format: functional
[12] = test system: Rattus norvegicus; experiment: Ulcer index at 5 mg/kg concentration; format: functional
[13] = Therapeutic index was expressed as LD50/ED50 carragreenin model; settings: mouse; read-out: TI
[14] = test system: Rattus norvegicus; experiment: Percent reduction of edema in rat on 23rd day after oral administration of 3 mg/kg in antiarthritis assay; format: functional
[15] = test system: Rattus norvegicus; experiment: Analgesic activity evaluated by measuring % analgesic effect, after oral administration of 120 mg/kg in acetic acid writhing test; format: functional
[16] = test system: Rattus norvegicus; experiment: Antiinflammatory activity evaluated by measuring % reduction of edema, 3h after oral administration of 1 mg/kg in carrageenan model; format: functional
[17] = organism: Rattus norvegicus; experiment: Antiinflammatory activity in carrageenan model, activity is expressed as ED50 values; format: functional
[18] = test system: Mus musculus; experiment: Percent reduction of edema in mice 3h after oral administration of 3 mg/kg in carrageenan model; format: functional
[19] = test system: Mus musculus; experiment: Acute toxicity was evaluated as number of mice died (tested = 7) after 72nd hour when 15 mg/kg is administered intraperitoneally; format: organism-based; parameters: dose 15 mg/kg, route intraperitoneal; settings: in vivo, ip
[20] = test system: Rattus norvegicus; experiment: Antiinflammatory activity evaluated by measuring % reduction of edema, 3h after oral administration of 5 mg/kg in carrageenan model; format: functional
[21] = test system: Mus musculus; experiment: Acute toxicity was evaluated as number of mice died (tested = 7) after 72nd hour when 75 mg/kg is administered intraperitoneally; format: organism-based; parameters: dose 75 mg/kg, route intraperitoneal; settings: in vivo, ip
[22] = test system: Rattus norvegicus; experiment: Percent reduction of edema in rat on 23rd day after oral administration of 30 mg/kg in antiarthritis assay; format: functional
[23] = test system: Rattus norvegicus; experiment: Antiinflammatory activity evaluated by measuring % reduction of edema, 3h after oral administration of 50 mg/kg in carrageenan model; format: functional
[24] = test system: Rattus norvegicus; experiment: Antiinflammatory activity evaluated by measuring % reduction of edema, 3h after oral administration of 30 mg/kg in carrageenan model; format: functional
[25] = organism: Rattus norvegicus; experiment: as §1; format: functional
[26] = test system: Rattus norvegicus; experiment: Antiinflammatory activity evaluated by measuring % reduction of edema, 3h after oral administration of 20 mg/kg in carrageenan model; format: functional
[27] = test system: Mus musculus; experiment: Percent reduction of edema in mice 3h after oral administration of 30 mg/kg in carrageenan model; format: functional
[28] = test system: Rattus norvegicus; experiment: Percent reduction of edema in rat on 23rd day after oral administration of 30 mg/kg in antiarthritis assay; i = Inactive; format: functional, organism-based; parameters: dose 30 mg/kg; settings: at 30 mg/kg
[29] = test system: Mus musculus; experiment: Acute toxicity was evaluated as number of mice (tested=7) died after 72nd hour when 225 mg/kg is administered intraperitoneally; format: organism-based; parameters: dose 225 mg/kg, route intraperitoneal; settings: in vivo, ip
[30] = organism: Rattus norvegicus; experiment: Median ulcerogenic dose was determined; format: functional
[31] = test system: Rattus norvegicus; experiment: Antiinflammatory activity evaluated by measuring % reduction of edema, 3h after oral administration of 10 mg/kg in carrageenan model; format: functional
[32] = test system: Rattus norvegicus; experiment: Ulcer index at 100 mg/kg concentration; format: functional
[33] = test system: Rattus norvegicus; experiment: Ulcer index at 200 mg/kg concentration; format: functional
[34] = test system: Mus musculus; experiment: Acute toxicity was evaluated as number of mice (tested=7) died after 72nd hour when 300 mg/kg is administered intraperitoneally; format: organism-based; parameters: dose 300 mg/kg, route intraperitoneal; settings: in vivo, ip
[35] = test system: Mus musculus; experiment: Acute toxicity was evaluated as number of mice (tested=7) died after 72nd hour when 350 mg/kg is administered intraperitoneally; format: organism-based; parameters: dose 350 mg/kg, route intraperitoneal; settings: in vivo, ip
[36] = test system: Rattus norvegicus; experiment: Antiinflammatory activity evaluated by measuring % reduction of edema, 3h after oral administration of 25 mg/kg in carrageenan model; format: functional
[37] = test system: Mus musculus; experiment: Analgesic activity evaluated by measuring % analgesic effect, after oral administration of 300 mg/kg in acetic acid writhing test; format: functional
[38] = test system: Mus musculus; experiment: Analgesic activity evaluated by measuring % analgesic effect, after oral administration of 500 mg/kg in acetic acid writhing test; format: functional
[39] = test system: Mus musculus; experiment: Acute toxicity was evaluated as number of mice (tested=7) died after 72nd hour when 170 mg/kg is administered intraperitoneally; format: organism-based; parameters: dose 170 mg/kg, route intraperitoneal; settings: in vivo, ip
[40] = test system: Rattus norvegicus; experiment: Percent reduction of edema in rat on 23rd day after oral administration of 100 mg/kg in antiarthritis assay; format: functional
[41] = test system: Mus musculus; experiment: Percent reduction of edema in mice 3h after oral administration of 100 mg/kg in carrageenan model; format: functional
[42] = test system: Rattus norvegicus; experiment: Percent reduction of edema in rat on 23rd day after oral administration of 20 mg/kg in antiarthritis assay; i = Inactive; format: functional, organism-based; parameters: dose 20 mg/kg; settings: at 20 mg/kg
[43] = test system: Rattus norvegicus; experiment: Antiinflammatory activity evaluated by measuring % reduction of edema, 3h after oral administration of 100 mg/kg in carrageenan model; format: functional
[44] = test system: Mus musculus; experiment: Acute toxicity was evaluated as number of mice (tested=7) died after 72nd hour when 260 mg/kg is administered intraperitoneally; format: organism-based; parameters: dose 260 mg/kg, route intraperitoneal; settings: in vivo, ip
[45] = test system: Mus musculus; experiment: Analgesic activity evaluated by measuring % analgesic effect, after oral administration of 5 mg/kg in acetic acid writhing test; format: functional
[46] = test system: Mus musculus; experiment: Acute toxicity was evaluated as number of mice (tested=7) died after 72nd hour when 250 mg/kg is administered intraperitoneally; format: organism-based; parameters: dose 250 mg/kg, route intraperitoneal; settings: in vivo, ip
[47] = test system: Mus musculus; experiment: Acute toxicity was evaluated as number of mice (tested=7) died after 72nd hour when 200 mg/kg is administered intraperitoneally; format: organism-based; parameters: dose 200 mg/kg, route intraperitoneal; settings: in vivo, ip
[48] = test system: Mus musculus; experiment: Acute toxicity was evaluated as number of mice (tested=7) died after 72nd hour when 280 mg/kg is administered intraperitoneally; format: organism-based; parameters: dose 280 mg/kg, route intraperitoneal; settings: in vivo, ip
[49] = test system: Mus musculus; experiment: Analgesic activity evaluated by measuring % analgesic effect, after oral administration of 15 mg/kg in acetic acid writhing test; format: functional
[50] = test system: Mus musculus; experiment: Analgesic activity evaluated by measuring % analgesic effect, after oral administration of 30 mg/kg in acetic acid writhing test; format: functional
[51] = test system: Mus musculus; experiment: Percent reduction of edema in mice 3h after oral administration of 17 mg/kg in carrageenan model; format: functional
[52] = organism: Rattus norvegicus; experiment: Ulcer index of the compound; format: functional
[53] = test system: Mus musculus; experiment: Analgesic activity evaluated by measuring % analgesic effect, after oral administration of 0.3 mg/kg in acetic acid writhing test; format: functional
[54] = test system: Mus musculus; experiment: Acute toxicity was evaluated as number of mice (tested=7) died after 72nd hour when 270 mg/kg is administered intraperitoneally; format: organism-based; parameters: dose 270 mg/kg, route intraperitoneal; settings: in vivo, ip
[55] = test system: Rattus norvegicus; experiment: Percent reduction of edema in rat on 23rd day after oral administration of 50 mg/kg in antiarthritis assay; i = Inactive; format: functional, organism-based; parameters: dose 50 mg/kg; settings: at 50 mg/kg
[56] = test system: Mus musculus; experiment: Percent reduction of edema in mice 3h after oral administration of 50 mg/kg in carrageenan model; format: functional

For `O=c1ccn(Cc2ccccc2)c2cc(-c3ccccc3)nn12`, the Reduction [1] was 5.8% and the Reduction [2] was 18.2%.

With `COc1ccc2c(c1)c(CC(=O)O)c(C)n2C(=O)c1ccc(Cl)cc1` [INDOMETHACIN] the UD50 [3] was 12.1 mg/kg, the Acute toxicity [4] was 1 and the UI [5] was 2.36. It also gave an Analgesic effect [6] of 28%, an LD50 [7] of 19.9 mg/kg and a UI [8] of 3.3. It also gave an Analgesic effect [9] of 57%, an Acute toxicity [10] of 2 and an ED50 [11] of 2.5 mg/kg. It also gave a UI [12] of 1.4, a selectivity ratio [13] of 10.9 and a Reduction [14] of 39%. It also gave an Analgesic effect [15] of 28.4%, a Reduction [16] of 36.7% and an ED50 [17] of 1.83 mg/kg. It also gave a Reduction [18] of 62.4%, an Acute toxicity [19] of 3 and a Reduction [20] of 69.2%. It also gave an Acute toxicity [21] of 7.

`CCCn1ccc(=O)n2nc(-c3ccccc3)cc12` showed a Reduction [22] of 33%, a Reduction [23] of 70.8% and a Reduction [24] of 52%. It also gave an ED50 [25] of 29.8 mg/kg, a Reduction [26] of 31.9% and a Reduction [27] of 52.1%.

In the case of `CCn1cc(Br)c(=O)n2nc(-c3ccccc3)c(Br)c12`, the Reduction [28] was “inactive” and the Reduction [27] was 0%.

`CCCCC1C(=O)N(c2ccccc2)N(c2ccccc2)C1=O` [PHENYLBUTAZONE] gave a Reduction [1] of 52.9%, an Acute toxicity [29] of 2 and a Reduction [2] of 20.7%. The UD50 [30] was 72.4 mg/kg, the Reduction [23] was 62.9% and the Reduction [31] was 48.7%. For the same molecule, the LD50 [7] was 238 mg/kg, the UI [8] was 1.35 and the UI [32] was 2.55. For the same molecule, the ED50 [25] was 274 mg/kg, the UI [33] was 3.2 and the Acute toxicity [34] was 4. It also gave a selectivity ratio [13] of 18.2, an ED50 [17] of 13.1 mg/kg and an Acute toxicity [35] of 7. The Reduction [36] was 52.9%, the Analgesic effect [37] was 57.7% and the Analgesic effect [38] was 73%. The Acute toxicity [39] was 0.

Work on `CCn1c(=O)ccn2nc(-c3ccccc3)cc12` yielded a Reduction [40] of 25.7% and a Reduction [41] of 32.2%.

For `CCn1ccc(=O)n2nc(-c3ccccc3)c(SSc3c(-c4ccccc4)nn4c(=O)ccn(CC)c34)c12`, the Reduction [28] was “inactive” and the Reduction [27] was 37.5%.

With `CC(C)n1ccc(=O)n2nc(-c3ccccc3)cc12` the Reduction [1] was 3.5% and the Reduction [42] was “inactive”.

In the case of `CCn1ccc(=O)n2nc(-c3ccccc3)cc12`, the Reduction [22] was 42.7%, the Reduction [43] was 90.1% and the Acute toxicity [44] was 2. It also gave an Analgesic effect [45] of 24.5%, a Reduction [31] of 54.1% and an Acute toxicity [46] of 1. For the same molecule, the LD50 [7] was 271 mg/kg, the ED50 [11] was 9.86 mg/kg and the Acute toxicity [47] was 0. For the same molecule, the Acute toxicity [48] was 5, the Analgesic effect [49] was 69.3% and the selectivity ratio [13] was 37.1. For the same molecule, the Analgesic effect [50] was 84.3%, the ED50 [17] was 7.3 mg/kg and the Reduction [51] was 54.1%. The Reduction [36] was 69.8%, the UI [52] was 0.15 and the Analgesic effect [53] was 20%. For the same molecule, the Acute toxicity [54] was 3.

For `CCCCn1ccc(=O)n2nc(-c3ccccc3)cc12`, the Reduction [1] was 26.6% and the Reduction [2] was 59.8%.

With `Cc1cc(=O)n2nc(-c3ccccc3)cc2n1C` the Reduction [55] was “inactive” and the Reduction [56] was 56.7%.

With `CCn1ccc(=O)n2nc(-c3ccccc3)c(Br)c12` the Reduction [28] was “inactive” and the Reduction [27] was 40.5%.
